Results taken from patent publication US20090035270A1, “COMBINATION THERAPY USING ANTI-ANGIOGENIC AGENTS AND TNF alpha” (priority 2001, published 2009).
Residues, ends and D or L forms follow the SMILES beside them. *: point of attachment. Cbz = O=C(OCc1ccccc1)*; CH2F = FC*

Key:
Assay type in all cases: cell-based, human
HUVEC [1] = test: HUVEC spheroid formation (aggregation) in BSA-coated wells; conditions: mAbs 10 μg/ml, EDTA 5 mM, evaluated at 6 and 16 hours
Description: To test the effect of integrin ligation on TNF-induced apoptosis we identified conditions where endothelial cells could be cultured without integrin-dependent adhesion. Single cell suspensions of endothelial cells rapidly die by anoikis (Meredith et al., Mol. Biol. Cell 4, 953-961 (1993)) thus precluding further analysis. But by seeding human umbilical vein endothelial cells (HUVEC) at high density (1.0×10^6 cells/ml) in BSA-coated wells multicellular spheroids formed within 2-4 hours, and could be maintained for over 24 hours dependent on VE-cadherin and without any detectable contribution from integrins.
HUVEC were collected by trypsinization, resuspended in complete medium at 1.0×10^6 cells/ml and 1 ml/well were seeded into 12 wells non-tissue culture plates (Evergreen Scientific, Los Angeles, Calif., USA) previously coated with 1% BSA. For aggregation studies, 200 μl of the cell suspension were seeded into 1% BSA-coated microwells of ELISA plates (Maxisorp II, NUNC, Roskilde, Denmark) alone or in the presence of mAbs (10 μg/ml), EDTA (5 mM) or Ca^2+/EDTA (10/5 mM). Spheroid formation was evaluated at 6 hours and 16 hours. Micrographs were take with a Televal 31 microscope (Cart Zeiss AG, Zürich; Switzerland).

ICAM-1 expression = test: Flow cytometry of ICAM-1 cell surface expression induced by TNF in HUVEC; conditions: HUVEC treated with TNF
Description: Activation of the nuclear factor-κB (NF-κB) promotes survival of cells exposed to TNF (Beg & Baltimore, Science 274, 782-784; Van Antwerp et al., Science 274, 787-789 (1996)). Since cell adhesion via integrins activates NF-κB (Scatena et al., J. Cell Biol. 141, 1083-1093 (1998)), we investigated whether the sensitivity of spheroids to TNF-induced apoptosis was due to lack of NF-κB activation. NF-κB activation was assessed by measuring I-κB phosphorylation and degradation, NF-κB nuclear translocation and cell surface expression of ICAM-1, an NF-κB-induced gene (Collins et al., Faseb J. 9, 899-909. (1995)), in spheroid and fibronectin-adherent HUVEC cultures exposed to TNF±IFNγ.
Aktmp suppresses TNF-induced apoptosis of spheroids in the presence of active NF-κB. We also tested whether both NF-κB activation and active Akt signaling were required for the survival, or whether active Akt alone was sufficient. […]
Indirect immunostaining of HUVEC and EGFP expression were performed following standard protocol (Ruegg et al., I.c.). […] Ail samples were analyzed with a FACScan II® and Cell Quest® software (Becton Dickinson, Mountain View Calif., USA).

HUVEC [2] = test: Detection of apoptotic HUVEC in culture (YoPro-1 staining); conditions: spheroids; TNF±IFNγ
Description: To test whether integrins modulate TNF-induced apoptosis, we cultured HUVEC on fibronectin (integrin-dependent adhesion) or as spheroids (integrin-independent adhesion) in the absence or presence of TNF (200 ng/ml) and of IFNγ (330 ng/ml), an enhancer of TNF cytotoxicity (Dealtry et al., Eur. J. Immunol. 17, 689-693 (1987)). […] In contrast, spheroids treated with TNF±IFNγ increased uptake of YoPro-1 (an increase suppressed by caspase inhibitors BOC, Z-VAD, IETD and DVED), DNA fragmentation, caspase-3 activation and cleavage of PARP (FIG. 2a, 2b and data not shown). To examine the effect of TNF±IFNγ on cell survival we determined the viability of untreated and treated cultures. […] Treatment with IFNγ alone was not cytotoxic (data not shown). HUVEC adhere to immobilized fibronectin via αVβ3 and α5β1 integrins (Rüegg et al., Nature Med. 4, 408-414 (1998)). To test for the individual contribution of these integrins to cell survival on fibronectin, we cultured HUVEC on plastic-immobilized mAbs (imAbs) directed against αVβ3, α1, α5 and α4 integrins.
For morphological evaluation, spheroids were embedded in Epon (Fluka Chemie) and thick sections were stained with 1% Methylene/Azur blue. For immunostaining, frozen spheroid sections were fixed in 4% (Fluka Chemis, Buchs, Switzerland) formaldehyde. After blocking with 1% BSA, sections were sequentially incubated for 1 hour with primary mAb (20 μg/ml) and a Cyan3-labeled GaM antiserum (West Grove, Pa., USA). For the TUNEL reaction, frozen spheroids sections were fixed in 4% paraformaledhyde and processed as described (Ruegg et al., I.e.). Spherouids were countsrstained with propidium iodide for total DNA content. […] The apoptosis index was determined by calculating the ratio between the green (TUNEL staining of fragmented DNA) and red (propidium iodide staining by total DNA) pixels. Number of analyzed spheroids per condition were: C, 31; T, 21; TI, 12. […] Cultures were viewed by inverted fluorescence microscopy (Leica DM IRB, Heerbrugg, Switzerland). […]

HUVEC [3] = test: Death ligand cytotoxicity on fibronectin-cultured HUVEC with EMD121974 (viability); conditions: EMD121974 300 μM, ligand 200 ng/ml, overnight
Description: FIG. 8. Decreased integrin ligation enhances TNF-, TRAIL- and FasL-induced cytotoxicity in vitro. HUVEC were cultured overnight on fibronectin coated microtiter plates in the absence (control) or presence of EMD121974 (300 μM), TNF (200 ng/ml), FasL (200 ng/ml), TRAIL (200 ng/ml), LIGHT (200 ng/ml), and IFNγ (330 ng/ml) as indicated. Viability was determined by MST assays.

Molecule: O=C(O)CN(CCN(CC(=O)O)CC(=O)O)CC(=O)O [EDTA]
- HUVEC spheroid formation (HUVEC [1]): blocked spheroid formation

Molecule: O=c1cc(N2CCOCC2)oc2c(-c3ccccc3)cccc12 [LY294002]
- inhibition of ICAM-1 expression induced by TNF (ICAM-1 expression): did not inhibit

Molecule: CC(NC(=O)C(NC(=O)OCc1ccccc1)C(C)C)C(=O)NC(CC(=O)O)C(=O)CF (stereo not drawn) [Z-VAD] (Cbz-Val-Ala-Asp-CH2F; configuration not given here)
- effect of caspase inhibitor on increased YoPro-1 uptake of spheroids treated with TNF±IFNγ (HUVEC [2]): suppressed

Molecule: COC[C@H]1OC(=O)c2coc3c2[C@@]1(C)C1=C(C3=O)[C@@H]2CCC(=O)[C@@]2(C)C[C@H]1OC(C)=O [wortmannin]
- inhibition of ICAM-1 expression induced by TNF (ICAM-1 expression): did not inhibit

Molecule: IETD
- effect of caspase inhibitor on increased YoPro-1 uptake of spheroids treated with TNF±IFNγ (HUVEC [2]): suppressed

B1: TRAIL: death ligand of the TNF-ligand family (protein, UniProt P50591 1-281, looked up)
Tumor necrosis factor ligand …: MAMMEVQGGPSLGQTCVLIVIFTVLLQSLCVAVTYVYFTNELKQMQDKYSKSGIACFLKEDDSYWDPNDEESMNSPCWQVKWQLRQLVRKMILRTSEETISTVQEKQQNISPLVRERGPQRVAAHITGTRGRSNTLSSPNSKNEKALGRKINSWESSRSGHSFLSNLHLRNGELVIHEKGFYYIYSQTYFRFQEEIKENTKNDKQMVQYIYKYTSYPDPILLMKSARNSCWSKDAEYGLYSIYQGGIFELKENDRIFVSVTNEHLIDMDHEASFFGAFLVG
- sensitivity to pro-apoptotic effects of death ligand in the presence of EMD121974 (synergism with αVβ3-blockage) (HUVEC [3]): Increased sensitivity

B2: FasL: death ligand of the TNF-ligand family (Fas ligand) (protein, UniProt P48023 130-281, looked up)
Tumor necrosis factor ligand …: QIGHPSPPPEKKELRKVAHLTGKSNSRSMPLEWEDTYGIVLLSGVKYKKGGLVINETGLYFVYSKVYFRGQSCNNLPLSHKVYMRNSKYPQDLVMMEGKMMSYCTTGQMWARSSYLGAVFNLTSADHLYVNVSELSLVNFEESQTFFGLYKL
- sensitivity to pro-apoptotic effects of death ligand in the presence of EMD121974 (synergism with αVβ3-blockage) (HUVEC [3]): Increased sensitivity

B3: LIGHT: ligand binding to receptors lacking a death domain (protein, UniProt O43557 83-240, looked up)
Tumor necrosis factor ligand …: LIQERRSHEVNPAAHLTGANSSLTGSGGPLLWETQLGLAFLRGLSYHDGALVVTKAGYYYIYSKVQLGGVGCPLGLASTITHGLYKRTPRYPEELELLVSQQSPCGRATSSSRVWWDSSFLGGVVHLEAGEKVVVRVLDERLVRLRDGTRSYFGAFMV
- sensitivity to pro-apoptotic effects of death ligand in the presence of EMD121974 (synergism with αVβ3-blockage) (HUVEC [3]): no synergism
